Laboratory results as given in PubChem BioAssay (NCI).
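Following 48 hours of exposure in 96-well plates, responses at five concentrations were used to interpolate endpoints linearly. TGI marks complete inhibition of growth.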

What was measured:
Test in all cases: DTP human tumour cell line panel, 48 h
SNB-19 CNS = system: SNB-19 CNS
HCT-15 colon = system: HCT-15 colon
ACHN renal = system: ACHN renal
NCI-H460 lung = system: NCI-H460 lung
LOX IMVI melanoma = system: LOX IMVI melanoma
SK-MEL-28 melanoma = system: SK-MEL-28 melanoma
SK-MEL-2 melanoma = system: SK-MEL-2 melanoma
M14 melanoma = system: M14 melanoma
OVCAR-8 ovarian = system: OVCAR-8 ovarian
BT-549 breast = system: BT-549 breast
NCI/ADR-RES ovarian = system: NCI/ADR-RES ovarian
MDA-MB-435 = system: MDA-MB-435
SNB-75 CNS = system: SNB-75 CNS
MDA-N = system: MDA-N
A498 renal = system: A498 renal
HL-60(TB) leukemia = system: HL-60(TB) leukemia
RXF 393 renal = system: RXF 393 renal
CCRF-CEM leukemia = system: CCRF-CEM leukemia
MDA-MB-231 breast = system: MDA-MB-231 breast
OVCAR-4 ovarian = system: OVCAR-4 ovarian
786-0 renal = system: 786-0 renal
SN12C renal = system: SN12C renal
UO-31 renal = system: UO-31 renal
A549 NSCLC = system: A549 NSCLC
T-47D breast = system: T-47D breast
SF-539 CNS = system: SF-539 CNS
SF-295 CNS = system: SF-295 CNS
HS 578T breast = system: HS 578T breast
COLO 205 colon = system: COLO 205 colon
CAKI-1 renal = system: CAKI-1 renal
NCI-H226 lung = system: NCI-H226 lung
EKVX NSCLC = system: EKVX NSCLC
SK-OV-3 ovarian = system: SK-OV-3 ovarian
HCT-116 colon = system: HCT-116 colon
PC-3 prostate = system: PC-3 prostate
SF-268 CNS = system: SF-268 CNS
UACC-62 melanoma = system: UACC-62 melanoma
MCF7 breast = system: MCF7 breast
HOP-92 NSCLC = system: HOP-92 NSCLC
OVCAR-5 ovarian = system: OVCAR-5 ovarian
MOLT-4 leukemia = system: MOLT-4 leukemia
NCI-H522 lung = system: NCI-H522 lung
HT29 colon = system: HT29 colon
UACC-257 melanoma = system: UACC-257 melanoma
SW-620 colon = system: SW-620 colon
KM12 colon = system: KM12 colon
SK-MEL-5 melanoma = system: SK-MEL-5 melanoma
U251 CNS = system: U251 CNS
OVCAR-3 ovarian = system: OVCAR-3 ovarian
TK-10 renal = system: TK-10 renal
HOP-62 NSCLC = system: HOP-62 NSCLC
DU-145 prostate = system: DU-145 prostate
IGROV1 ovarian = system: IGROV1 ovarian
NCI-H23 lung = system: NCI-H23 lung
MALME-3M melanoma = system: MALME-3M melanoma
SR leukemia = system: SR leukemia
K-562 leukemia = system: K-562 leukemia
RPMI-8226 leukemia = system: RPMI-8226 leukemia

Measured: TGI

O=[N+]([O-])c1ccc(NS(=O)(=O)C(F)(F)F)cc1
> 100 µM: SNB-19 CNS | HCT-15 colon | ACHN renal | NCI-H460 lung | LOX IMVI melanoma | SK-MEL-28 melanoma | SK-MEL-2 melanoma | M14 melanoma | OVCAR-8 ovarian | BT-549 breast | NCI/ADR-RES ovarian | MDA-MB-435 | SNB-75 CNS | MDA-N | A498 renal | HL-60(TB) leukemia | RXF 393 renal | CCRF-CEM leukemia | MDA-MB-231 breast | OVCAR-4 ovarian | 786-0 renal | SN12C renal | UO-31 renal | A549 NSCLC | T-47D breast | SF-539 CNS | SF-295 CNS | HS 578T breast | COLO 205 colon | CAKI-1 renal | NCI-H226 lung | EKVX NSCLC | SK-OV-3 ovarian | HCT-116 colon | PC-3 prostate | SF-268 CNS | UACC-62 melanoma | MCF7 breast | HOP-92 NSCLC | OVCAR-5 ovarian | MOLT-4 leukemia | NCI-H522 lung | HT29 colon | UACC-257 melanoma | SW-620 colon | KM12 colon | SK-MEL-5 melanoma | U251 CNS | OVCAR-3 ovarian | TK-10 renal | HOP-62 NSCLC | DU-145 prostate | IGROV1 ovarian | NCI-H23 lung

CCOC(=O)c1nc2ccccc2nc1NCc1ccc(Cl)cc1Cl
> 100 µM: SNB-19 CNS | MALME-3M melanoma | HCT-15 colon | ACHN renal | NCI-H460 lung | LOX IMVI melanoma | SK-MEL-2 melanoma | M14 melanoma | OVCAR-8 ovarian | BT-549 breast | NCI/ADR-RES ovarian | MDA-MB-435 | SNB-75 CNS | MDA-N | A498 renal | RXF 393 renal | CCRF-CEM leukemia | MDA-MB-231 breast | OVCAR-4 ovarian | 786-0 renal | UO-31 renal | A549 NSCLC | T-47D breast | SF-539 CNS | SF-295 CNS | HS 578T breast | COLO 205 colon | CAKI-1 renal | SR leukemia | NCI-H226 lung | K-562 leukemia | EKVX NSCLC | SK-OV-3 ovarian | HCT-116 colon | PC-3 prostate | SF-268 CNS | UACC-62 melanoma | MCF7 breast | HOP-92 NSCLC | OVCAR-5 ovarian | MOLT-4 leukemia | NCI-H522 lung | HT29 colon | RPMI-8226 leukemia | UACC-257 melanoma | SW-620 colon | KM12 colon | SK-MEL-5 melanoma | U251 CNS | OVCAR-3 ovarian | TK-10 renal | HOP-62 NSCLC | IGROV1 ovarian | NCI-H23 lung
